Measurements as given in US10501449B2 (priority 2018, dated 2019).
Read-outs that look alike come from different tables or passages of the source.

Experiments:
[1] = molecular target: T1, hROMK (human Kir1.1) (Homo sapiens (Human), UniProt P48048); experiment: cell-based; details: CHO T-Rex hROMK stable cell line; thallium flux; 10-point concentration response curve; read-out: Human ROMK Th Flux IC50
[2] = molecular target: T1, hROMK (human Kir1.1); experiment: cell-based; assay type: cell-based; details: whole-cell manual patch clamp, CHO T-Rex hROMK stable cell line, voltage step to -120 mV, Ba2+-subtracted hROMK current; read-out: ROMK EP IC50
Procedure: ROMK Manual Patch Clamp Assay
Cell culture conditions: Cells were maintained in conditions similar to those for Thallium flux assay. hROMK channel expression was induced by adding 0.6 μg/ml of Doxycycline 16-24 hrs prior to the experiments. On the day of experiment, the cells were dissociated using Versene, resuspended in growth media and plated onto coverslips 15 minutes prior to use.
Electrophysiology: The coverslip plated with cells was placed in the experiment chamber perfused with bath solution composed of (in mM): 135 NaCl, 5 KCl, 2 CaCl2, 1 MgCl2, 10 HEPES, 5 Glucose (pH 7.4). Patch pipettes with resistance between 2-5 Megaohms, when filled with a solution containing (in mM): 135 KCl, 1 EGTA, 1 MgCl2, 10 HEPES, 2 Na2ATP (pH 7.3), were used to form gigaseals. The cells were voltage clamped at −75 mV in whole-cell configuration using an Axopatch 200b or Multiclamp 700b (Molecular Devices) amplifier controlled by pClamp Software (Molecular Devices). The current was recorded by applying a voltage step to −120 mV every 10 seconds. […] At the end of the experiment, the cells were perfused with bath solution containing 2 mM Ba^2+ to isolate the contribution of hROMK current.
Data analysis: Raw current values (5 traces each for control, different compound concentration and Ba^2+ treatment groups) were exported from Clampfit into Microsoft Excel where the current remaining after application of Ba^2+ was subtracted from raw current to obtain hROMK specific current.

[3] = molecular target: hERG channels (Homo sapiens (Human), UniProt Q12809); experiment: hERG Manual Patch Clamp Assay; assay type: cell-based; details: human, HEK 293 cells stably expressing hERG channels, pH 7.4, 1 uM, read-out: hERG EP % Inh @ 1 uM
hERG channels, sequence (Q12809 whole entry): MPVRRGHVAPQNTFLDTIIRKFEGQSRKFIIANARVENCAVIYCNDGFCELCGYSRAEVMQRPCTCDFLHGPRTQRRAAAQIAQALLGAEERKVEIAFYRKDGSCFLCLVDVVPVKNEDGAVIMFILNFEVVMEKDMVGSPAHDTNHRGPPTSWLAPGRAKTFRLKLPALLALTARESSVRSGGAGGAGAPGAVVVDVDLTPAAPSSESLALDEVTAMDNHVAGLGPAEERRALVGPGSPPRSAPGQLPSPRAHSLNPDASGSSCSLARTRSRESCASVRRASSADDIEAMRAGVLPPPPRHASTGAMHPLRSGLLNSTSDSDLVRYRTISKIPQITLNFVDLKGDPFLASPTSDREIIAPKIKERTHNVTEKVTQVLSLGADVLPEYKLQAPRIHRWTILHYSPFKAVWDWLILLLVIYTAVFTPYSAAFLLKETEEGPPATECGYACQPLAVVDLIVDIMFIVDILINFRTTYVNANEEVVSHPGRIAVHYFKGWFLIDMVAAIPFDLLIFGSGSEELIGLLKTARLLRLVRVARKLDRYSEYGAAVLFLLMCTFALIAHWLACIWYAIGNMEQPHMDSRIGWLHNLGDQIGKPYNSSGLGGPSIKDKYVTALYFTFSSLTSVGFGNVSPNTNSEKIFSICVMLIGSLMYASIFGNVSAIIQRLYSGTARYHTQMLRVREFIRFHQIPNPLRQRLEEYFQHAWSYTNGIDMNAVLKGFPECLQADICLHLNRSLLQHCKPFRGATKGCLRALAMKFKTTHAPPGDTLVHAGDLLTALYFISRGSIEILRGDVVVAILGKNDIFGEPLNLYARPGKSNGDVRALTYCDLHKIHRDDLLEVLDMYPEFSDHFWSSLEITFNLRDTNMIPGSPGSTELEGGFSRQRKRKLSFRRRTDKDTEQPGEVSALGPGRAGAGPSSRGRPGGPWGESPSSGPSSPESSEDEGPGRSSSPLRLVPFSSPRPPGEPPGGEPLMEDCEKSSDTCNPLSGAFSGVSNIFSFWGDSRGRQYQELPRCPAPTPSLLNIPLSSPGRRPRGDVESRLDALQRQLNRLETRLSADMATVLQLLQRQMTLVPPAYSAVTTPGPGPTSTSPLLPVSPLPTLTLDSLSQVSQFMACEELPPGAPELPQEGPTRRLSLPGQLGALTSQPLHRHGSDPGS

T1 sequence (P48048 whole entry): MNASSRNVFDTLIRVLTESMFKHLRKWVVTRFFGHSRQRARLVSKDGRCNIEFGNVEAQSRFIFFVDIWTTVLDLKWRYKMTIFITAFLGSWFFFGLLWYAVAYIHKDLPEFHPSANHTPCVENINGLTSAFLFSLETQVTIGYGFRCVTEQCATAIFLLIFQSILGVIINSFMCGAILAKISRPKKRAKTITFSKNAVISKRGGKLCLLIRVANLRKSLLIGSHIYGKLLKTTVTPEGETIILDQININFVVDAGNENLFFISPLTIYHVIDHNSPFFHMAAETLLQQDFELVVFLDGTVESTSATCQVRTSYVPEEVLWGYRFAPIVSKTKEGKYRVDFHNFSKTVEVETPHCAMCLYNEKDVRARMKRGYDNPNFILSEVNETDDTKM

SMILES | IC50 [1] [nM] | IC50 [2] [nM] | inhibition at 1 µM [3] [%]
Cc1cc(-n2cc(CN3CC(c4ccc5c(c4C)COC5=O)NCC3C)cn2)ncc1C#N (single isomer, unassigned) [Example 244-II, 4-methyl-6-(4-((2-methyl-5-(4-methyl-1-oxo-1,3-dihydroisobenzofuran-5-yl)piperazin-1-yl)methyl)-1H-pyrazol-1-yl)nicotinonitrile] | 17 | 22 | –
Cc1c([C@@H]2CN(Cc3cn(-c4ccc5oc(=O)n(C)c5c4)nn3)CCN2)ccc2c1COC2=O [Example 61-I, (R)-3-methyl-5-(4-((3-(4-methyl-1-oxo-1,3-dihydroisobenzofuran-5-yl)piperazin-1-yl)methyl)-1H-1,2,3-triazol-1-yl)benzo[d]oxazol-2 (3H)-one] | – | 40 | –
COc1cc(-n2ncc(CN3CCN[C@H](c4ccc5c(c4C)COC5=O)C3)n2)ncc1C#N [Example 168-I, (R)-4-methoxy-6-(4-((3-(4-methyl-1-oxo-1,3-dihydroisobenzofuran-5-yl)piperazin-1-yl)methyl)-2H-1,2,3-triazol-2-yl)nicotinonitrile] | 20 | 29 | 22
Cc1cc(-n2ncc(CN3CCN[C@H](c4ccc5c(c4C)COC5=O)C3)n2)nc(C)c1C#N [Example 184-I, (R)-2,4-dimethyl-6-(4-((3-(4-methyl-1-oxo-1,3-dihydroisobenzofuran-5-yl)piperazin-1-yl)methyl)-2H-1,2,3-triaozl-2-yl)nicotinonitrile] | 30 | 10 | 6.1
Cc1cc(-n2cc(CN3C[C@@H](c4ccc5c(c4C)COC5=O)N[C@@H](C)C3)nn2)ncc1C#N [Example 106-I, 4-methyl-6-(4-(((3S,5R)-3-methyl-5-(4-methyl-1-oxo-1,3-dihydroisobenzofur-an-5-yl)piperazin-1-yl)methyl)-1H-1,2,3-triazol-1-yl)nicotinonitrile] | – | 10 | 0.98
Cc1cn(-c2ccc(CN3CCN[C@H](c4ccc5c(c4C)COC5=O)C3)cn2)cn1 [Example 66-I, (R)-4-methyl-5-(4-((6-(4-methyl-1H-imidazol-1-yl)pyridin-3-yl)methyl)piperazin-2-yl)iso-benzofuran-1(3H)-one] | 33 | 4.7 | 0
COc1cc(-n2cnc(CN3C[C@@H](c4ccc5c(c4C)COC5=O)N[C@@H](C)C3)c2)ccc1C#N [Example 101-I, 2-methoxy-4-(4-(((3S,5R)-3-methyl-5-(4-methyl-1-oxo-1,3-dihydroisobenzofur-an-5-yl)piperazin-1-yl)methyl)-1H-imidazol-1-yl)benzonitrile] | 26 | 34 | 3
Cc1cc(-n2cc(CN3C[C@@H](c4ccc5c(c4C)COC5=O)N[C@@H](C)C3)cn2)ccn1 [Example 102-I, 4-methyl-5-((2R,6S)-6-methyl-4-((1-(2-methylpyridin-4-yl)-1H-pyrazol-4-yl)methyl)piperazin-2-yl)isobenzofuran-1(3H)-one] | 48 | 17 | 5.6
Cc1cc(-c2cc(CN3CC[C@@H](O)[C@H](c4ccc5c(c4C)COC5=O)C3)on2)ncc1C#N [Example 193-I, 6-(5-(((3R,4R)-4-hydroxy-3-(4-methyl-1-oxo-1,3-dihydroisobenzofuran-5-yl)piperidin-1-yl)methyl)isoxazol-3-yl)-4-methylnicotinonitrile] | 44 | 20 | 14
Cc1c([C@@H]2CN(Cc3cnn(-c4ccc5oc(=O)n(C)c5c4)n3)C[C@H](CO)N2)ccc2c1COC2=O [Example 109-I, 5-(4-(((3R,5R)-3-(hydroxymethyl)-5-(4-methyl-1-oxo-1,3-dihydroisobenzofur-an-5-yl)piperazin-1-yl)methyl)-2H-1,2,3-triazol-2-yl)-3-methylbenzo[d]oxa-zol-2(3H)-one] | – | 54 | 3.6
COc1cc(-n2nnc(CN3CC[C@@H](O)[C@H](c4ccc5c(c4C)COC5=O)C3)n2)ccc1C#N [Example 272-I, 4-(5-(((3R,4R)-4-hydroxy-3-(4-methyl-1-oxo-1,3-dihydroisobenzofuran-5-yl)piperidin-1-yl)methyl)-2H-tetrazol-2-yl)-2-methoxybenzonitrile] | 65 | – | 5.2
Cc1cc(-n2cc(CN3C[C@@H](c4ccc5c(c4C)COC5=O)N[C@@H](C)C3)n(C)c2=O)ccn1 [Example 266-I, 3-methyl-4-(((3S,5R)-3-methyl-5-(4-methyl-1-oxo-1,3-dihydroisobenzofuran-5-yl)piperazin-1-yl)methyl)-1-(2-methylpyridin-4-yl)-1,3-dihydro-2H-imidazol-2-one] | 36 | – | 3.1
Cc1c([C@@H]2CN(Cc3cnn(-c4cc(C#N)ccn4)c3)CCN2)ccc2c1COC2=O [Example 198-I, (R)-2-(4-((3-(4-methyl-1-oxo-1,3-dihydroisobenzofuran-5-yl)piperazin-1-yl)methyl)-1H-pyraozl-1-yl)isonicotinonitrile] | 83 | – | 0
Cc1cn(-c2ncc(CN3CCN[C@H](c4ccc5c(c4C)COC5=O)C3)cc2F)cn1 [Example 144-I, (R)-5-(4-((5-fluoro-6-(4-mehtyl-1H-imidazol-1-yl)pyridin-3-yl)methyl)piperazin-2-yl)-4-methylisobenzofuran-1(3H)-one] | 24 | – | 7.8
COc1cc(-c2cc(CN3C[C@@H](c4ccc5c(c4C)COC5=O)N[C@@H](C)C3)on2)ncc1C#N [Example 269-I, 4-methoxy-6-(5-(((3S,5R)-3-methyl-5-(4-methyl-1-oxo-1,3-dihydroisobenzofuran-5-yl)piperazin-1-yl)methyl)isoxazol-3-yl)nicotinonitrile] | 24 | – | 9.5
COc1cc(-c2ccc(CN3CCN[C@H](c4ccc5c(c4C)COC5=O)C3)cn2)ncc1C#N [Example 63-I, (R)-4-methoxy-5′-((3-(4-methyl-1-oxo-1,3-di-hydroisobenzofuran-5-yl)piperazin-1-yl)methyl)-[2,2′-bipyridine]-5-carbonitrile] | 60 | – | 23
Cc1cc(N2CC(CN3CCN[C@H](c4ccc5c(c4C)COC5=O)C3)CC2=O)ncc1C#N (single isomer, unassigned) [Example 158-I] | 36 | – | 20
Cc1cn(-c2ncc(CN3CCN[C@H](c4ccc5c(c4C)COC5=O)C3)cn2)nc1C#N [Example 243-I, (R)-4-methyl-1-(5-((3-(4-methyl-1-oxo-1,3-dihydroisobenzofuran-5-yl)piperazin-1-yl)methyl)pyrimidin-2-yl)-1H-pyrazole-3-carbonitrile] | 13 | – | 9.8
Cc1cc(-n2nnc(CN3C[C@@H](c4ccc5c(c4C)COC5=O)N[C@@H](C)C3)n2)ccc1C#N [Example 265-I, 2-methyl-4-(5-(((3S,5R)-3-methyl-5-(4-methyl-1-oxo-1,3-dihydroisobenzofuran-5-yl)piperazin-1-yl)methyl)-2H-tetrazol-2-yl)benzonitrile] | 22 | – | 20
Cc1nc(-n2cc(CN3C[C@@H](c4ccc5c(c4C)COC5=O)N[C@@H](C)C3)cn2)ncc1C#N [Example 96-I, 4-methyl-2-(4-(((3S,5R)-3-methyl-5-(4-methyl-1-oxo-1,3-dihydroisobenzofur-an-5-yl)piperazin-1-yl)methyl)-1H-pyrazol-1-yl)pyrimidine-5-carbonitrile] | 27 | – | 9.6
COc1cc(C#N)ccc1-n1cc(CN2CCO[C@H](c3ccc4c(c3C)COC4=O)C2)cn1 [Example 51-I, (R)-3-methoxy-4-(4-((2-(4-methyl-1-oxo-1,3-dihydroisobenzofuran-5-yl)morpholino)methyl)-1H-pyrazol-1-yl) benzonitrile] | 29 | – | 43
COc1cc(-n2cnc(CN3C[C@@H](c4ccc5c(c4C)COC5=O)N[C@@H](C)C3)c2)ncc1C#N [Example 97-I, 4-methoxy-6-(4-(((3S,5R)-3-methyl-5-(4-methyl-1-oxo-1,3-dihydroisobenzofur-an-5-yl)piperazin-1-yl)methyl)-1H-imidazol-1-yl)nicotinonitrile] | 28 | 43 | –
Cc1cc(-n2cc(CN3CCN[C@H](c4ccc5c(c4C)COC5=O)C3)c(C(F)F)n2)ncc1C#N [Example 233-I, (R)-6-(3-(difluoromethyl)-4-((3-(4-methyl-1-oxo-1,3-dihydroisobenzofuran-5-yl)piperazin-1-yl)methyl)-1H-pyrazol-1-yl)-4-methylnicotinonitrile] | 22 | – | 31
Cc1cc(-c2cc(CN3C[C@@H](c4ccc5c(c4C)COC5=O)N[C@@H](C)C3)on2)ncc1C#N [Example 214-I, 4-methyl-6-(5-(((3S,5R)-3-methyl-5-(4-methyl-1-oxo-1,3-dihydroisobenzofuran-5-yl)piperazin-1-yl)methyl)isoxazol-3-yl)nicotinonitrile] | 6.6 | – | 22
COc1cc(-n2cc(CCN3C[C@@H](c4ccc5c(c4C)COC5=O)N[C@@H](C)C3)cn2)ncc1C#N [Example 192-I, 4-methoxy-6-(4-(2-((3S,5R)-3-methyl-5-(4-methyl-1-oxo-1,3-dihydroisobenzofuran-5-yl)piperazin-1-yl)ethyl)-1H-pyrazol-1-yl)nicotinonitrile] | 16 | – | 46
Cc1c([C@@H]2CN(Cc3cnn(-c4cccc(N5CCOC5=O)n4)c3)C[C@H](C)N2)ccc2c1COC2=O [Example 249-I, 3-(6-(4-(((3S,5R)-3-methyl-5-(4-methyl-1-oxo-1,3-dihydroisobenzofuran-5-yl)piperazin-1-yl)methyl)-1H-pyrazol-1-yl)pyridin-2-yl)oxazolidin-2-one] | 120 | – | 9.1
